In US20250304537A1 (Repare Therapeutics Inc., priority 2022, published 2025):
pIC50: −log10 of the molar value. Read-outs that look alike come from different tables or passages of the source.

Key:
[1] = system: PKMYT1 (CDK1 pThr14) in FUOV1 cells; assay: PKMYT1 cell-based activity assay, CDK1 pThr14 AlphaLISA in FUOV1 cells; settings: read-out: FUOV-1 CDK1 pThr14 IC50
How it was run: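 IC50 was derived from AlphaLISA signal (excitation 680 nm, emission 615 nm) for phospho-Thr14 CDK1 in lysates. The detection antibodies were rabbit anti-pThr14 and mouse anti-total CDK1, each at 5 nM. FUOV1 ovarian cells were exposed to compound for 2 hours before lysis.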

[2] = target: recombinant human Myt1 (full length PKMYT1) (Homo sapiens (Human), UniProt Q99640); assay: Recombinant human Myt1 kinase assay (ADP-Glo); assay type: biochemical; settings: 10 μM ATP
Chain of recombinant human Myt1 (full length PKMYT1) (Q99640 whole entry): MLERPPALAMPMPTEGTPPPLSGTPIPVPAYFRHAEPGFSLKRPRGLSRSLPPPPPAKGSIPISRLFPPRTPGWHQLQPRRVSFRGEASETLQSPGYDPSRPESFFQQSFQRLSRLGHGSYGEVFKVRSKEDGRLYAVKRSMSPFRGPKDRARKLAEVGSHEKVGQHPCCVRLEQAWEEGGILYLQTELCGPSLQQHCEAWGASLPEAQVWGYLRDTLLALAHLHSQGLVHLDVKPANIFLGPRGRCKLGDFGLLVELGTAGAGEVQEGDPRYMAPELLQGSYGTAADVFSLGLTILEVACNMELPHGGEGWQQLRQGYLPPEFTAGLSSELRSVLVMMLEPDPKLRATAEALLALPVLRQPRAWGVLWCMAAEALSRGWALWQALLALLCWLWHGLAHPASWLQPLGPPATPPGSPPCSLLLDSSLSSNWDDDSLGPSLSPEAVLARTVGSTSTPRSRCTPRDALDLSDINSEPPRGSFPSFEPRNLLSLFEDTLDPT
How it was run: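 ADP-Glo luminescence measured ATP hydrolysis by recombinant full-length PKMYT1 (18 nM) after 60 min at 30 °C with 10 μM ATP. Compounds in 0.5% DMSO were added to the enzyme 15 min before ATP, at 22 °C, in HEPES/MgCl2/MnCl2 buffer. IC50 and percent maximal inhibition were derived.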

Structure (SMILES) | pIC50 ([1]; 2 h, 2 hours with compound) | pIC50 [2] | pIC50 ([1]; 2 h, 2 h incubation) | pIC50 ([1]; 2 h, 2 h compound incubation) | pIC50 ([1]; 2 h incubation)
Cc1ccc2[nH]ncc2c1-c1nc(-c2cccnc2N[C@H]2CCOCC2(C)C)nc(C(N)=O)c1N [Compound 830] | 6.52 | 8.10 | – | – | –
CSc1nccc(-c2cc(-c3c(C)ccc4[nH]ncc34)c(N)c(C(N)=O)n2)n1 [Compound 167] | – | 8.10 | 6.38 | – | –
Cc1ccc2[nH]ncc2c1-c1nc(-c2cc(F)c(F)cc2NC(=O)C2(C#N)CC2)nc(C(N)=O)c1N [Compound 477] | – | 8.52 | – | 7.59 | –
Cc1ccc2[nH]ncc2c1-c1nc(-c2ccccc2NC(C)(C)C)nc(C(N)=O)c1N [Compound 451] | – | 8.15 | – | 6.98 | –
Cc1nnc(-c2cccc(-c3nc(C(N)=O)c(N)c(-c4c(C)ccc5[nH]ncc45)n3)c2)o1 [Compound 290] | – | 8.22 | 6.78 | – | –
Cc1ccc2[nH]ncc2c1-c1nc(-c2ccc(F)cc2Nc2ncccc2Cl)nc(C(N)=O)c1N [Compound 611] | – | 7.68 | – | 7.66 | –
Cc1ccc(O)c(C)c1-c1cc(-c2cnccn2)nc(C(N)=O)c1N [Compound 26] | – | 8.52 | 7.12 | – | –
Cc1ccc2[nH]ncc2c1-c1nc(-c2cccnc2N[C@@H](c2cccnc2)C(F)F)nc(C(N)=O)c1N [Compound 937] | 6.67 | 8.70 | – | – | –
Cc1ccc2[nH]ncc2c1-c1cc(-c2ccccn2)nc(C(N)=O)c1N [Compound 87] | – | 7.96 | 6.25 | – | –
Cc1ccc2[nH]ncc2c1-c1nc(-c2ccccc2NCC(F)(F)F)nc(C(N)=O)c1N [Compound 409] | – | 8.30 | – | 7.55 | –
Cc1ccc(O)c(C)c1-c1cc(-c2ccnc(N)c2)cc(C(N)=O)c1N [Compound 64] | – | 8.22 | 6.59 | – | –
Cc1ccc2[nH]ncc2c1-c1nc(-c2ccccc2NC(=O)C(C)(C)C)nc(C(N)=O)c1N [Compound 377] | – | 8.52 | 7.68 | – | –
Cc1ccc2[nH]ncc2c1-c1cc(-c2cccc(N[C@H](CO)c3ccccc3)n2)nc(C(N)=O)c1N [Compound 274] | – | 8.52 | 6.87 | – | –
Cc1nccc(Nc2cc(C#N)ccc2-c2nc(C(N)=O)c(N)c(-c3c(C)ccc4[nH]ncc34)n2)n1 [Compound 766] | – | 8.52 | – | 7.39 | –
Cc1ccc(O)c(C)c1-c1cc(-c2cccc(OC3CCOCC3)n2)nc(C(N)=O)c1N [Compound 57] | – | 8.15 | 7.34 | – | –
Cc1ccc2[nH]ncc2c1-c1cc(-c2cccc(OCc3nccn3C)n2)nc(C(N)=O)c1N [Compound 249] | – | 8.30 | 7.07 | – | –
Cc1ccc(O)c(C)c1-c1nc(-c2ccccc2NC(=O)C2(C)CC2)cc(C(N)=O)c1N [Compound 428] | – | 8.52 | – | 7.59 | –
COCCNc1nccc(-c2cc(-c3c(C)ccc4[nH]ncc34)c(N)c(C(N)=O)n2)n1 [Compound 214, 3-amino-6-(2-((2-methoxyethyl)amino)pyrimidin-4-yl)-4-(5-methyl-1H-indazol-4-yl)picolinamide] | – | 8.30 | 6.35 | – | –
Cc1ccc2[nH]ncc2c1-c1cc(-c2cccc(OCCN3CCOCC3)n2)nc(C(N)=O)c1N [Compound 185] | – | 8.15 | 6.43 | – | –
Cc1ccc2[nH]ncc2c1-c1nc(Nc2ncccc2-c2ccncn2)nc(C(N)=O)c1N [Compound 818, 5-amino-6-(5-methyl-1H-indazol-4-yl)-2-((3-(pyrimidin-4-yl)pyridin-2-yl)amino)pyrimidine-4-carboxamide] | < 5.00 | 5.41 | – | – | –
Cc1ccc2[nH]ncc2c1-c1nc(-c2cccc3c2NCCO3)nc(C(N)=O)c1N [Compound 852] | 6.30 | 7.77 | – | – | –
Cc1ccc(-c2nc(C(N)=O)c(N)c(-c3c(C)ccc4[nH]ncc34)n2)c(Nc2nccnc2C)n1 [Compound 658] | – | 8.30 | – | 8.10 | –
Cc1ccc2[nH]ncc2c1-c1cc(-c2ccnc(OC3(C)COC3)n2)nc(C(N)=O)c1N [Compound 220] | – | 8.40 | 6.82 | – | –
Cc1ccc2[nH]ncc2c1-c1nc(-c2cc(F)c(F)cc2NC2CCOCC2)nc(C(N)=O)c1N [Compound 466, 5-amino-2-(4,5-difluoro-2-((tetrahydro-2H-pyran-4-yl)amino)phenyl)-6-(5-methyl-1H-indazol-4-yl)pyrimidine-4-carboxamide] | – | 8.22 | – | 7.11 | –
Cc1ccc2[nH]ncc2c1-c1cc(-c2ccnc(OCc3ccncc3)n2)nc(C(N)=O)c1N [Compound 230] | – | 8.40 | 6.68 | – | –
Cc1ccc(-c2nc(C(N)=O)c(N)c(-c3c(C)ccc4[nH]ncc34)n2)c(NC(=O)C2(C)CC2)c1 [Compound 433] | – | 8.30 | – | 7.89 | –
Cc1ccc2[nH]ncc2c1-c1nc(-c2cccnc2N)nc(C(N)=O)c1N [Compound 469] | – | 7.92 | – | 6.27 | –

Structure (SMILES) | pIC50 ([1]; 2 h, 2 hours with compound) | pIC50 [2] | pIC50 ([1]; 2 h, 2 h incubation) | pIC50 ([1]; 2 h, 2 h compound incubation) | pIC50 ([1]; 2 h incubation)
Cc1ccc(O)c(C)c1-c1cc(-c2cccc(N3CCOCC3)c2)nc(C(N)=O)c1N [Compound 42] | – | 8.15 | 6.77 | – | –
CCC(COC)Oc1nccc(-c2cc(-c3c(C)ccc4[nH]ncc34)c(N)c(C(N)=O)n2)n1 (stereo not drawn) [Compound 221] | – | 8.15 | 6.57 | – | –
Cc1ccc2[nH]ncc2c1-c1nc(-c2ccccc2NC(=O)[C@@]2(C)CCCN2)nc(C(N)=O)c1N [Compound 431] | – | 8.10 | – | 8.30 | –
Cc1ccc2[nH]ncc2c1-c1nc(-c2ccc(S(C)(=O)=O)cc2NC2CCOCC2)nc(C(N)=O)c1N [Compound 831] | 6.93 | > 8.52 | – | – | –
NC(=O)c1nc(-c2ccccn2)cc(-c2cccc3[nH]ncc23)c1N [Compound 70] | – | 7.54 | 5.83 | – | –
Cc1ccc2[nH]ncc2c1-c1nc(-c2ccncc2NC(=O)C(C)(C)C)nc(C(N)=O)c1N [Compound 483, 5-amino-6-(5-methyl-1H-indazol-4-yl)-2-(3-pivalamidopyridin-4-yl)pyrimidine-4-carboxamide] | – | 8.70 | – | 8.70 | –
Cc1ccc(O)c(C)c1-c1cc(-c2nccs2)nc(C(N)=O)c1N [Compound 13, 3-amino-4-(3-hydroxy-2,6-dimethylphenyl)-6-(thiazol-2-yl)picolinamide] | – | > 8.46 | 7.19 | – | –
Cc1ccc2[nH]ncc2c1-c1nc(-c2cc(F)c(F)cc2NC(=O)C2(C)CC2)nc(C(N)=O)c1N [Compound 446] | – | 8.10 | – | 8.10 | –
Cc1ccc2[nH]ncc2c1-c1nc(-c2cccc3c2NC(=O)C3(F)F)nc(C(N)=O)c1N [Compound 395] | – | 7.77 | – | 6.11 | –
Cc1ccc2[nH]ncc2c1-c1nc(-c2ccc(F)cc2Nc2cc(C3CC3)ncn2)nc(C(N)=O)c1N [Compound 615] | – | 7.80 | – | 6.29 | –
Cc1ccc2[nH]ncc2c1-c1nc(-c2cc(F)cc3c2NC(=O)C3)nc(C(N)=O)c1N [Compound 393] | – | 8.22 | 6.54 | – | –
Cc1ccc2[nH]ncc2c1-c1cc(-c2ccncn2)nc(C(N)=O)c1N [Compound 105] | – | 7.92 | 6.26 | – | –
Cc1ccc2[nH]ncc2c1-c1cc(-c2cccc(OCc3nccs3)n2)nc(C(N)=O)c1N [Compound 261] | – | 8.22 | 6.26 | – | –
Cc1cccc(-c2cc(-c3c(C)ccc(O)c3C)c(N)c(C(N)=O)n2)n1 [Compound 83] | – | 8.22 | 6.73 | – | –
Cc1ccc2[nH]ncc2c1-c1nc(-c2cccc(F)c2NCC(F)F)nc(C(N)=O)c1N [Compound 435] | – | 8.40 | – | 6.87 | –
Cc1ccc2[nH]ncc2c1-c1nc(-c2cc(Cl)ncc2NC2CCOCC2)nc(C(N)=O)c1N [Compound 839] | 7.66 | 8.40 | – | – | –
Cc1ccc(O)c(C)c1-c1cc(C2CC2)nc(C(N)=O)c1N [Compound 54] | – | 7.74 | 5.62 | – | –
Cc1ccc2[nH]ncc2c1-c1cc(-c2cccc(O[C@H](C)c3ncccn3)n2)nc(C(N)=O)c1N [Compound 254] | – | 8.30 | 6.69 | – | –
Cc1ncc(C#N)c(Nc2cc(F)ccc2-c2nc(C(N)=O)c(N)c(-c3c(C)ccc4[nH]ncc34)n2)n1 [Compound 618] | – | 8.52 | – | 8.30 | –
Cc1ccc2[nH]ncc2c1-c1nc(-c2cc(F)c(F)cc2NCC(F)F)nc(C(N)=O)c1N [Compound 467] | – | 8.22 | – | 6.97 | –
Cc1ccc2[nH]ncc2c1-c1cc(-c2ccnc(Nc3ccncc3)n2)nc(C(N)=O)c1N [Compound 200] | – | 7.96 | 6.81 | – | –
Cc1ccc2[nH]ncc2c1-c1cc(-c2cccc(OC[C@H](N)c3ccccc3)n2)nc(C(N)=O)c1N (atropisomer, axis not shown) [Compound 338] | – | 6.78 | – | – | 6.55
Cc1ccc2[nH]ncc2c1-c1nc(-c2ccccc2-c2ncc[nH]2)nc(C(N)=O)c1N [Compound 808] | < 5.00 | 7.85 | – | – | –
Cc1ccc2[nH]ncc2c1-c1nc(-c2cc(F)cnc2NC2CCOC(C(F)(F)F)C2)nc(C(N)=O)c1N (stereo not drawn) [Compound 873] | 6.06 | 7.72 | – | – | –
Cc1cccc(NC(=O)C2(C)CC2)c1-c1nc(C(N)=O)c(N)c(-c2c(C)ccc3[nH]ncc23)n1 [Compound 457] | – | 6.29 | – | < 5.00 | –
Cc1ccc(O)c(C)c1-c1cc(-c2nc3ccccc3o2)nc(C(N)=O)c1N [Compound 56] | – | 8.15 | 6.43 | – | –
Cc1ccc2[nH]ncc2c1-c1cc(-c2cccc(OCc3cnccn3)n2)nc(C(N)=O)c1N [Compound 250] | – | 8.10 | 6.12 | – | –
